From US20250230193A1, “CYCLIC COMPOUND HAVING SELECTIVE KRAS INHIBITORY EFFECT ON HRAS AND NRAS” (CHUGAI SEIYAKU KABUSHIKI KAISHA, priority 2022, published 2025)
Where a SMILES comes first, the peptide text is derived from it. Bridges are numbered along the chain shown (N, C = ends). [ ]: non-standard residue; d: D form. The star is where a group is joined. hPhe(3-Cl-4-CF3) = N[C@@H](CCc1ccc(C(F)(F)F)c(Cl)c1)C(=O)O; NPrPhe(4-CF3) = CCCN[C@@H](Cc1ccc(C(F)(F)F)cc1)C(=O)O; NMeAbu(4,4,4-F3) = CN[C@@H](CC(F)(F)F)C(=O)O; NMeGly(cPent) = CN[C@H](C(=O)O)C1CCCC1; Pro(4,4-F2) = O=C(O)[C@@H]1CC(F)(F)CN1; Pro(4S-Me) = C[C@@H]1CN[C@H](C(=O)O)C1; NMeChg = CN[C@H](C(=O)O)C1CCCCC1; NMeD = CN[C@@H](CC(=O)O)C(=O)O; NMeL = CN[C@@H](CC(C)C)C(=O)O; Morpholide = C1CN(*)CCO1; NMeA = CN[C@@H](C)C(=O)O; Ac5c = NC1(C(=O)O)CCCC1; Aze = O=C(O)[C@@H]1CCN1; Ac4c = NC1(C(=O)O)CCC1; NEtG = CCNCC(=O)O; Sar = CNCC(=O)O

Experiments:
[1] = target: GDP-bound NRAS wild-type protein (Homo sapiens, UniProt P01111); assay: Binding to NRAS by surface plasmon resonance (SPR), Single Cycle Kinetics
[2] = target: GDP-bound HRAS wild-type protein (Homo sapiens, UniProt P01112); assay: Binding to HRAS by surface plasmon resonance (SPR), Single Cycle Kinetics
[3] = KD ratio, GDP-bound NRAS wild-type vs GDP-bound KRAS wild-type, SPR
[4] = KD ratio, GDP-bound HRAS wild-type vs GDP-bound KRAS wild-type, SPR
[5] = SPR, GDP-bound NRAS wild-type vs GDP-bound KRAS wild-type
[6] = SPR, GDP-bound HRAS wild-type vs GDP-bound KRAS wild-type
[7] = SPR, GDP-bound wild-type proteins

Chain of GDP-bound HRAS wild-type protein (P01112 whole entry): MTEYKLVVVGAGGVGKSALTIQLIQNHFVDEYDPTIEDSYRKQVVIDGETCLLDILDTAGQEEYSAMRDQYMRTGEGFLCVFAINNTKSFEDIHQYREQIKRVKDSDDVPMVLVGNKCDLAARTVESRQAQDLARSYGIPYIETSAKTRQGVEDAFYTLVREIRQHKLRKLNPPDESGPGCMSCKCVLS
Chain of GDP-bound NRAS wild-type protein (P01111 whole entry): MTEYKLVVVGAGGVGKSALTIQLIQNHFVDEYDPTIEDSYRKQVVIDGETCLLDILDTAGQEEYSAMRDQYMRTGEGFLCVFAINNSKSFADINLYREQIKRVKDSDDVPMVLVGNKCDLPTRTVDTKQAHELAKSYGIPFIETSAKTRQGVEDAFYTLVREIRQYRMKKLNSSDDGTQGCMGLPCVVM

CCO[C@@H]1C[C@H]2C(=O)NC3(CCC3)C(=O)N(C)[C@@H](C3CCCC3)C(=O)N(CC)[C@H](C(=O)N3CCOCC3)CC(=O)N(C)[C@@H](CC)C(=O)N[C@@H]([C@@H](C)CC)C(=O)N(C)CC(=O)N(C)[C@H]3C/C=C\CCN(C3=O)[C@@H](Cc3ccc(C(F)(F)F)cc3)C(=O)N(C)CC(=O)N[C@@H](CCc3cc(F)c(C(F)(F)F)c(F)c3)C(=O)N2C1 [PP0979]
NRAS/KRAS (ratio of KD value with respect to NRAS to KD value with respect to KRAS) [1, 3]: AA (a compound having 20 or more is denoted as AA)
HRAS/KRAS (ratio of KD value with respect to HRAS to KD value with respect to KRAS) [2, 4]: A (a compound having 10 or more and less than 20 is denoted as A)

CCC[C@H]1C(=O)N[C@@H]([C@@H](C)CC)C(=O)N(C)CC(=O)N(C)[C@H]2C/C=C\CCN(C2=O)[C@@H](Cc2ccc(C)cc2)C(=O)N(C)CC(=O)N[C@@H](CCc2ccc(Cl)c(Cl)c2)C(=O)N2C[C@H](OCC)C[C@H]2C(=O)NC2(CC(C)(C)C2)C(=O)N(C)[C@@H](C(CC)CC)C(=O)N(C)[C@H](C(=O)N(C)C)CC(=O)N1C [PP2184]
NRAS/KRAS (ratio of KD value with respect to NRAS to KD value with respect to KRAS) [1, 5]: AA (a compound having 20 or more is denoted as AA)
HRAS/KRAS (ratio of KD value with respect to HRAS to KD value with respect to KRAS) [2, 6]: A (a compound having 10 or more and less than 20 is denoted as A)

CC[C@H](C)[C@@H]1NC(=O)[C@H](COC)N(C)C(=O)C[C@@H](C(=O)N(CC)CC)N(C)C(=O)[C@H](C2CCCC2)N(C)C(=O)C2(CC(C)(C)C2)NC(=O)[C@@H]2C[C@H](C)CN2C(=O)[C@H](CCc2cc(F)c(C(F)(F)F)c(F)c2)NC(=O)CN(C)C(=O)[C@H](Cc2ccc(C)cc2)N2CC/C=C\C[C@@H](C2=O)N(C)C(=O)CN(C)C1=O [PP2455]
NRAS/KRAS (ratio of KD value with respect to NRAS to KD value with respect to KRAS) [1, 5]: AA (a compound having 20 or more is denoted as AA)
HRAS/KRAS (ratio of KD value with respect to HRAS to KD value with respect to KRAS) [2, 6]: A (a compound having 10 or more and less than 20 is denoted as A)

CCCN1C(=O)CN(C)C(=O)CN(C)C(=O)[C@H]([C@@H](C)CC)NC(=O)[C@H](CC(C)C)N(C)C(=O)C[C@@H](C(=O)N2CCOCC2)N(C)C(=O)[C@H](C2CCCCC2)N(C)C(=O)C2(CCC2)NC(=O)[C@@H]2CCCN2C(=O)[C@H](CCc2ccc(C(F)(F)F)c(Cl)c2)NC(=O)CN(C)C(=O)[C@@H]1Cc1ccc(C(F)(F)F)cc1 [PP1928] ([NMeL]I[Sar][Sar][NPrPhe(4-CF3)][Sar][hPhe(3-Cl-4-CF3)]P[Ac4c][NMeChg][NMeD]-Morpholide; lactam N-11)
NRAS/KRAS (ratio of KD value for NRAS to KD value for KRAS) [1, 3]: B (a compound having 3 or more and less than 10 is denoted as B)
HRAS/KRAS (ratio of KD value for HRAS to KD value for KRAS) [2, 4]: B (a compound having 3 or more and less than 10 is denoted as B)

CC[C@H](C)[C@@H]1NC(=O)[C@H](CC(C)C)N(C)C(=O)C[C@@H](C(=O)N2CCOCC2)N(C)C(=O)[C@H](C2CCCC2)N(C)C(=O)C2(CCCC2)NC(=O)[C@@H]2CCCN2C(=O)[C@H](CCc2cc(F)c(C(F)(F)F)c(F)c2)NC(=O)CN(C)C(=O)[C@H](Cc2ccc(C(F)(F)F)cc2)N2CCCC[C@@H](C2=O)N(C)C(=O)[C@@H]2CCCCN2C1=O [PP0548]
NRAS/KRAS (ratio of KD value with respect to GDP-bound NRAS wild-type protein to KD value with respect to KRAS) ([1]; SPR): C (A compound having a KD ratio of 0.1 or more and less than 3 is denoted as C)
HRAS/KRAS (ratio of KD value with respect to GDP-bound HRAS wild-type protein to KD value with respect to KRAS) ([2]; SPR): B (a compound having 3 or more and less than 10 is denoted as B)

CCCN1C(=O)CN(C)C(=O)CNC(=O)[C@H]([C@@H](C)CC)NC(=O)[C@H](CC(C)C)N(C)C(=O)C[C@@H](C(=O)N2CCOCC2)N(C)C(=O)[C@H](C2CCCC2)N(C)C(=O)C2(CCCC2)NC(=O)[C@@H]2C[C@H](C)CN2C(=O)[C@H](CCc2ccc(C(F)(F)F)c(Cl)c2)NC(=O)CN(C)C(=O)[C@@H]1Cc1ccc(C(F)(F)F)cc1 [PP0449] ([NMeL]IG[Sar][NPrPhe(4-CF3)][Sar][hPhe(3-Cl-4-CF3)][Pro(4S-Me)][Ac5c][NMeGly(cPent)][NMeD]-Morpholide; lactam N-11)
NRAS/KRAS (ratio of KD value with respect to GDP-bound NRAS wild-type protein to KD value with respect to KRAS) ([1]; SPR): C (A compound having a KD ratio of 0.1 or more and less than 3 is denoted as C)
HRAS/KRAS (ratio of KD value with respect to GDP-bound HRAS wild-type protein to KD value with respect to KRAS) ([2]; SPR): C (A compound having a KD ratio of 0.1 or more and less than 3 is denoted as C)

CC[C@H](C)[C@@H]1NC(=O)[C@H](COC)N(C)C(=O)C[C@@H](C(=O)N2CCOCC2)N(C)C(=O)[C@H](C2CCCC2)N(C)C(=O)C2(CCC2)NC(=O)[C@@H]2C[C@H](OC)CN2C(=O)[C@H](CCc2cc(F)c(C(F)(F)F)c(F)c2)NC(=O)CN(C)C(=O)[C@H](Cc2ccc(C(F)(F)F)cc2)N2CCCCC[C@@H](C2=O)N(C)C(=O)CN(C)C1=O [PP0836]
NRAS/KRAS (ratio of KD value with respect to NRAS to KD value with respect to KRAS) [1, 3]: B (a compound having 3 or more and less than 10 is denoted as B)
HRAS/KRAS (ratio of KD value with respect to HRAS to KD value with respect to KRAS) [2, 4]: B (a compound having 3 or more and less than 10 is denoted as B)

CCCN1C(=O)[C@@H]2CCN2C(=O)[C@H](C)N(C)C(=O)[C@H]([C@@H](C)CC)NC(=O)[C@H](CC(F)(F)F)N(C)C(=O)C[C@@H](C(=O)N2CCOCC2)N(C)C(=O)[C@H](C2CCCC2)N(C)C(=O)C2(CCCC2)NC(=O)[C@@H]2CCCN2C(=O)[C@H](CCc2ccc(C(F)(F)F)c(Cl)c2)NC(=O)CN(C)C(=O)[C@@H]1Cc1ccc(C(F)(F)F)cc1 [PP0191] ([NMeAbu(4,4,4-F3)]I[NMeA][Aze][NPrPhe(4-CF3)][Sar][hPhe(3-Cl-4-CF3)]P[Ac5c][NMeGly(cPent)][NMeD]-Morpholide; lactam N-11)
NRAS/KRAS (ratio of KD for GDP-bound NRAS wild-type to KD for KRAS) ([1]; SPR): C (A compound having a KD ratio of 0.1 or more and less than 3 is denoted as C)
HRAS/KRAS (ratio of KD for GDP-bound HRAS wild-type to KD for KRAS) ([2]; SPR): B (a compound having 3 or more and less than 10 is denoted as B)

CCC[C@H]1C(=O)N[C@@H]([C@@H](C)CC)C(=O)N(C2CC2)CC(=O)N(C)[C@H]2C/C=C\CCN(C2=O)[C@@H](Cc2ccc(C)cc2)C(=O)N(C)CC(=O)N[C@@H](CCc2cc(F)c(C(F)(F)F)c(F)c2)C(=O)N2C[C@H](OCC)C[C@H]2C(=O)NC2(CC(C)(C)C2)C(=O)N(C)[C@@H](C(CC)CC)C(=O)N(C)[C@H](C(=O)N(C)C)CC(=O)N1C [PP2560]
NRAS/KRAS (ratio of KD value with respect to GDP-bound NRAS wild-type protein to KD value with respect to KRAS) ([1]; class symbols): AA (a compound having 20 or more is denoted as AA)
HRAS/KRAS (ratio of KD value with respect to GDP-bound HRAS wild-type protein to KD value with respect to KRAS) ([2]; class symbols): A (a compound having 10 or more and less than 20 is denoted as A)

CCO[C@@H]1C[C@H]2C(=O)NC3(CCC3)C(=O)N(C)[C@@H](C3CCCC3)C(=O)N(C)[C@H](C(=O)N3CCOCC3)CC(=O)N(C)[C@@H](CC(C)C)C(=O)N[C@@H]([C@@H](C)CC)C(=O)N(C)CC(=O)N(C)[C@H]3CCCCCN(C3=O)[C@@H](Cc3ccc(F)cc3)C(=O)N(C)CC(=O)N[C@@H](CCc3ccc(C(F)(F)F)c(Cl)c3)C(=O)N2C1 [PP0968]
NRAS/KRAS (ratio of KD value with respect to NRAS to KD value with respect to KRAS) [1, 3]: B (a compound having 3 or more and less than 10 is denoted as B)
HRAS/KRAS (ratio of KD value with respect to HRAS to KD value with respect to KRAS) [2, 4]: B (a compound having 3 or more and less than 10 is denoted as B)

CCCN1C(=O)CN(C)C(=O)CN(CC)C(=O)[C@H]([C@@H](C)CC)NC(=O)[C@H](CC(C)C)N(C)C(=O)C[C@@H](C(=O)N2CCOCC2)N(C)C(=O)[C@H](C2CCCC2)N(C)C(=O)C2(CCC2)NC(=O)[C@@H]2CC(F)(F)CN2C(=O)[C@H](CCc2ccc(C(F)(F)F)c(Cl)c2)NC(=O)CN(C)C(=O)[C@@H]1Cc1ccc(C(F)(F)F)cc1 [PP0400] ([NMeL]I[NEtG][Sar][NPrPhe(4-CF3)][Sar][hPhe(3-Cl-4-CF3)][Pro(4,4-F2)][Ac4c][NMeGly(cPent)][NMeD]-Morpholide; lactam N-11)
NRAS/KRAS (ratio of KD for GDP-bound NRAS wild-type to KD for KRAS) ([1]; SPR): B (a compound having 3 or more and less than 10 is denoted as B)
HRAS/KRAS (ratio of KD for GDP-bound HRAS wild-type to KD for KRAS) ([2]; SPR): B (a compound having 3 or more and less than 10 is denoted as B)

CCO[C@@H]1C[C@H]2C(=O)NC3(CCC3)C(=O)N(C)[C@@H](C3CCCC3)C(=O)N(C)[C@H](C(=O)N3CCCCC3)CC(=O)N(C)[C@H]3CCCCCCc4ccc(cc4)C[C@@H](C(=O)N(C)CC(=O)N[C@@H](CCc4ccc(C(F)(F)F)c(OC)c4)C(=O)N2C1)N1CC/C=C\C[C@@H](C1=O)N(C)C(=O)CN(C)C(=O)[C@H]([C@@H](C)CC)NC3=O [PP3033, (1S,7S,11R,13S,19S,22S,26S,29S,35S,37Z)-19-cyclopentyl-11-ethoxy-7-[2-[3-methoxy-4-(trifluoromethyl)phenyl]ethyl]-3,18,21,25,31,34-hexamethyl-29-[(1S)-1-methylpropyl]-22-(piperidine-1-carbonyl)spiro[3,6,9,15,18,21,25,28,31,34,41-undecazapentacyclo[24.15.11.2^43,46.1^35,41.0^9,13]pentapentaconta-37,43(54),44,46(53)-tetraene-16,1′-cyclobutane]-2,5,8,14,17,20,24,27,30,33,55-undecone]
NRAS/KRAS (ratio of KD value with respect to GDP-bound NRAS wild-type protein to KD value with respect to KRAS) [1, 7]: A (a compound having 10 or more and less than 20 is denoted as A)
HRAS/KRAS (ratio of KD value with respect to GDP-bound HRAS wild-type protein to KD value with respect to KRAS) [2, 7]: B (a compound having 3 or more and less than 10 is denoted as B)

CC[C@H](C)[C@@H]1NC(=O)[C@H](CC(C)C)N(C)C(=O)C[C@@H](C(=O)N2CCOCC2)N(C)C(=O)[C@H](C2CCCC2)N(C)C(=O)C2(CCCC2)NC(=O)[C@@H]2CC(F)(F)CN2C(=O)[C@H](CCc2ccc(C(F)(F)F)c(Cl)c2)NC(=O)CN(C)C(=O)[C@H](Cc2ccc(F)cc2)N2CCCCC[C@@H](C2=O)N(C)C(=O)CN(C)C1=O [PP0966]
NRAS/KRAS (ratio of KD value with respect to NRAS to KD value with respect to KRAS) [1, 3]: B (a compound having 3 or more and less than 10 is denoted as B)
HRAS/KRAS (ratio of KD value with respect to HRAS to KD value with respect to KRAS) [2, 4]: B (a compound having 3 or more and less than 10 is denoted as B)
